Reference: patent publication US9920038B2, “Methyl oxazole orexin receptor antagonists” (MERCK SHARP & DOHME CORP., priority 2014, dated 2018)

How the values were obtained:
hOX1R = hOX1R (Homo sapiens, UniProt O43613); assay: hOX1R FLIPR Ca2+ flux assay; assay type: cell-based; details: CHO cells expressing orexin-1 receptor; agonist 70 pM Ala-6,12 orexin-A; read-out: hOX1R FLIPR IC50
human orexin-2 receptor = human orexin-2 receptor (Homo sapiens (Human), UniProt O43614); assay: hOX2R FLIPR Ca2+ flux assay; assay type: cell-based; details: CHO cells expressing human orexin-2 receptor; agonist 70 pM Ala-6,12 orexin-A
Sequence of human orexin-2 receptor (O43614 whole entry): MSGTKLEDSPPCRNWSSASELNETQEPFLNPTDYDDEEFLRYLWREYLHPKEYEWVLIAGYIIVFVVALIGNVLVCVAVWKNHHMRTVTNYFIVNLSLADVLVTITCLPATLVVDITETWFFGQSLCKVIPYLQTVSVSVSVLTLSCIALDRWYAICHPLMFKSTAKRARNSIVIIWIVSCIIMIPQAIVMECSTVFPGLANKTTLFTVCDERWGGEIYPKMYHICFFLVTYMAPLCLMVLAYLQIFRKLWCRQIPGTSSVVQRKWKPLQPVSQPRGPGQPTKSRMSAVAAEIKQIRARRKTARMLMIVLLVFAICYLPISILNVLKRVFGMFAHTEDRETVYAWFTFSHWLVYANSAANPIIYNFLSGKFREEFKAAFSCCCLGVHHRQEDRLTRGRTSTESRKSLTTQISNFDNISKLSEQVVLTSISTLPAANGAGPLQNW
Procedure: In a typical experiment the OX1 and OX2 receptor antagonistic activity of the compounds of the present invention was determined in accordance with the following experimental method. For intracellular calcium measurements, Chinese hamster ovary (CHO) cells expressing the rat orexin-1 receptor or the human orexin-2 receptor, are grown in Iscove's modified DMEM containing 2 mM L-glutamine, […], 1% hypoxanthine-thymidine supplement, 100 U/ml penicillin, 100 μg/ml streptomycin and 10% heat-inactivated fetal calf serum (FCS). The cells are seeded at 20,000 cells/well into Becton-Dickinson black 384-well clear bottom sterile plates coated with poly-D-lysine. All reagents were from GIBCO-Invitrogen Corp. The seeded plates are incubated overnight at 37° C. and 5% CO2. Ala-6,12 human orexin-A as the agonist is prepared as a 1 mM stock solution in 1% bovine serum albumin (BSA) and diluted in assay buffer (HBSS containing 20 mM HEPES, 0.1% BSA and 2.5 mM probenecid, pH7.4) for use in the assay at a final concentration of 70 pM. Test compounds are prepared as 10 mM stock solution in DMSO, then diluted in 384-well plates, first in DMSO, then assay buffer. On the day of the assay, cells are washed 3 times with 100 μl assay buffer and then incubated for 60 min (37° C., 5% CO2) in 60 μl assay buffer containing […] Fluo-4AM ester, 0.02% pluronic acid, and 1% BSA. The dye loading solution is then aspirated and cells are washed 3 times with 100 μl assay buffer. 30 μl of that same buffer is left in each well. Within the Fluorescent Imaging Plate Reader (FLIPR, Molecular Devices), test compounds are added to the plate in a volume of 25 μl, incubated for 5 min and finally 25 μl of agonist is added. Fluorescence is measured for each well at 1 second intervals for 5 minutes and the height of each fluorescence peak is compared to the height of the fluorescence peak induced by 70 pM Ala-6,12 orexin-A with buffer in place of antagonist. For each antagonist, IC50 value (the concentration of compound needed to inhibit 50% of the agonist response) is determined. Alternatively, compound potency can be assessed by a radioligand binding assay (described in Bergman et. al. Bioorg. Med. Chem. Lett. 2008, 18, 1425-1430) in which the inhibition constant (Ki) is determined in membranes prepared from CHO cells expressing either the OX1 or OX2 receptor. The intrinsic orexin receptor antagonist activity of a compound which may be used in the present invention may be determined by these assays.

Row | SMILES | IC50 (hOX1R) | IC50 (human orexin-2 receptor)
1 | Cc1oc(C[C@H]2CCCCN2C(=O)c2cccnc2OCC(F)F)nc1C(C)(C)O [Example 16, (R)-(2-(2,2-difluoroethoxy)pyridin-3-yl)(2-((4-(2-hydroxypropan-2-yl)-5-methyloxazol-2-yl)methyl)piperidin-1-yl)methanone] | 373 nM | 49 nM
2 | Cc1oc(C[C@H]2CCCCN2C(=O)c2ccccc2OC(F)F)nc1C(C)(C)O [Example 15, (R)-(2-(difluoromethoxy)phenyl)(2-((4-(2-hydroxypropan-2-yl)-5-methyloxazol-2-yl)methyl)piperidin-1-yl)methanone] | 1090 nM | 98 nM
3 | Cc1oc(C[C@H]2CCCCN2C(=O)c2cccnc2OC(C)C)nc1C(C)(C)O [Example 6, (R)-(2-((4-(2-hydroxypropan-2-yl)-5-methyloxazol-2-yl)methyl)piperidin-1-yl)(2-isopropoxypyridin-3-yl)methanone] | 223 nM | 36 nM
4 | CCOc1ncccc1C(=O)N1CCCC[C@@H]1Cc1nc(C(C)(C)O)c(C)o1 [Example 2, (R)-(2-ethoxypyridin-3-yl)(2-((4-(2-hydroxypropan-2-yl)-5-methyloxazol-2-yl)methyl)piperidin-1-yl)methanone] | 152 nM | 20 nM
5 | Cc1oc(C[C@H]2CCCCN2C(=O)c2nccnc2N2CCCC2)nc1C(C)(C)O [Example 23, (R)-(2-((4-(2-hydroxypropan-2-yl)-5-methyloxazol-2-yl)methyl)piperidin-1-yl)(3-(pyrrolidin-1-yl)pyrazin-2-yl)methanone] | > 10000 nM | > 10000 nM
6 | Cc1oc(C[C@H]2CCCCN2C(=O)c2ccccc2-n2ncnn2)nc1C(C)(C)O [Example 28, (R)-(2-(2H-tetrazol-2-yl)phenyl)(2-((4-(2-hydroxypropan-2-yl)-5-methyloxazol-2-yl)methyl)piperidin-1-yl)methanone] | 486 nM | 152 nM
7 | Cc1oc(C[C@H]2CCCCN2C(=O)c2ncccc2-c2ccccc2)nc1C(C)(C)O [Example 25, (R)-(2-((4-(2-hydroxypropan-2-yl)-5-methyloxazol-2-yl)methyl)piperidin-1-yl)(3-phenylpyridin-2-yl)methanone] | 240 nM | 127 nM
8 | Cc1oc(C[C@H]2CCCCN2C(=O)c2ccccc2-n2nccn2)nc1C(C)(C)O [Example 1, (R)-(2-(2H-1,2,3-triazol-2-yl)phenyl)(2-((4-(2-hydroxypropan-2-yl)-5-methyloxazol-2-yl)methyl)piperidin-1-yl)methanone] | 18 nM | 14 nM
9 | Cc1oc(C[C@H]2CCCCN2C(=O)c2ccccc2N2CCCC2)nc1C(C)(C)O [Example 7, (R)-(2-((4-(2-hydroxypropan-2-yl)-5-methyloxazol-2-yl)methyl)piperidin-1-yl)(2-(pyrrolidin-1-yl)phenyl)methanone] | 67 nM | 51 nM
10 | Cc1oc(C[C@H]2CCCCN2C(=O)c2nccnc2-c2ccccn2)nc1C(C)(C)O [Example 22, (R)-(2-((4-(2-hydroxypropan-2-yl)-5-methyloxazol-2-yl)methyl)piperidin-1-yl)(3-(pyridin-2-yl)pyrazin-2-yl)methanone] | 2930 nM | 558 nM
11 | Cc1oc(C[C@H]2CCCCN2C(=O)c2ccccc2OCC(F)F)nc1C(C)(C)O [Example 20, (R)-(2-(2,2-difluoroethoxy)phenyl)(2-((4-(2-hydroxypropan-2-yl)-5-methyloxazol-2-yl)methyl)piperidin-1-yl)methanone] | 690 nM | 112 nM
12 | Cc1oc(C[C@H]2CCCCN2C(=O)c2ccccc2OC(F)(F)F)nc1C(C)(C)O [Example 9, (R)-(2-((4-(2-hydroxypropan-2-yl)-5-methyloxazol-2-yl)methyl)piperidin-1-yl)(2-(trifluoromethoxy)phenyl) methanone] | 348 nM | 109 nM
13 | Cc1oc(C[C@H]2CCCCN2C(=O)c2nccnc2-n2cccn2)nc1C(C)(C)O [Example 26, (R)-(3-(1H-pyrazol-1-yl)pyrazin-2-yl)(2-((4-(2-hydroxypropan-2-yl)-5-methyloxazol-2-yl)methyl)piperidin-1-yl)methanone] | 1410 nM | 186 nM
14 | Cc1oc(C[C@H]2CCCCN2C(=O)c2ccccc2OCC(F)(F)F)nc1C(C)(C)O [Example 17, (R)-(2-((4-(2-hydroxypropan-2-yl)-5-methyloxazol-2-yl)methyl)piperidin-1-yl)(2-(2,2,2-trifluoroethoxy)phenyl)methanone] | 952 nM | 99 nM
15 | Cc1oc(C[C@H]2CCCCN2C(=O)c2ccccc2CC(F)F)nc1C(C)(C)O [Example 12, (R)-(2-(2,2-difluoroethyl)phenyl)(2-((4-(2-hydroxypropan-2-yl)-5-methyloxazol-2-yl)methyl)piperidin-1-yl)methanone] | 2180 nM | 98 nM
16 | Cc1oc(C[C@H]2CCCCN2C(=O)c2ccccc2-n2cccn2)nc1C(C)(C)O [Example 10, (R)-(2-(1H-pyrazol-1-yl)phenyl)(2-((4-(2-hydroxypropan-2-yl)-5-methyloxazol-2-yl)methyl)piperidin-1-yl)methanone] | 129 nM | 51 nM
17 | COc1ccc(C(=O)N2CCCC[C@@H]2Cc2nc(C(C)(C)O)c(C)o2)c(C2CC2)n1 [Example 19, (R)-(2-cyclopropyl-6-methoxypyridin-3-yl)(2-((4-(2-hydroxypropan-2-yl)-5-methyloxazol-2-yl)methyl)piperidin-1-yl)methanone] | 2310 nM | 503 nM
18 | CCCc1ccccc1C(=O)N1CCCC[C@@H]1Cc1nc(C(C)(C)O)c(C)o1 [Example 29, (R)-(2-((4-(2-hydroxypropan-2-yl)-5-methyloxazol-2-yl)methyl)piperidin-1-yl)(2-propylphenyl)methanone] | 794 nM | 106 nM
19 | Cc1oc(C[C@H]2CCCCN2C(=O)c2cccnc2-n2cccn2)nc1C(C)(C)O [Example 13, (R)-(2-(1H-pyrazol-1-yl)pyridin-3-yl)(2-((4-(2-hydroxypropan-2-yl)-5-methyloxazol-2-yl)methyl)piperidin-1-yl)methanone] | 51 nM | 24 nM
20 | Cc1oc(C[C@H]2CCCCN2C(=O)c2cccnc2-c2ccccc2)nc1C(C)(C)O [Example 14, (R)-(2-((4-(2-hydroxypropan-2-yl)-5-methyloxazol-2-yl)methyl)piperidin-1-yl)(2-phenylpyridin-3-yl)methanone] | 80 nM | 38 nM
21 | Cc1oc(C[C@H]2CCCCN2C(=O)c2ccc(F)cc2-n2nccn2)nc1C(C)(C)O [Example 4, (R)-(4-fluoro-2-(2H-1,2,3-triazol-2-yl)phenyl)(2-((4-(2-hydroxypropan-2-yl)-5-methyloxazol-2-yl)methyl)piperidin-1-yl)methanone] | 39 nM | 25 nM
22 | CCOc1ccccc1C(=O)N1CCCC[C@@H]1Cc1nc(C(C)(C)O)c(C)o1 [Example 8, (R)-(2-ethoxyphenyl)(2-((4-(2-hydroxypropan-2-yl)-5-methyloxazol-2-yl)methyl)piperidin-1-yl)methanone] | 256 nM | 28 nM
23 | Cc1oc(C[C@H]2CCCCN2C(=O)c2cccnc2CC(F)(F)F)nc1C(C)(C)O [Example 11, (R)-(2-((4-(2-hydroxypropan-2-yl)-5-methyloxazol-2-yl)methyl)piperidin-1-yl)(2-(2,2,2-trifluoroethyl)pyridin-3-yl)methanone] | > 10000 nM | –
